Assay results published in ChEMBL document CHEMBL1201862, “PubChem BioAssay data set” (2004).
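Assay format: 96-well plates, 48-hour exposure. Here, GI50 denotes the concentration required for 50% inhibition of growth.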 Active and inactive are the calls of the source. No stated cut-off is given here; in the data, active = GI50 up to about 1.1 µM and inactive = higher.

Experiments:
Test in all cases: inhibition of tumour cell growth, NCI panel, 48 h
UACC-257 = test system: UACC-257
OVCAR-5 = test system: OVCAR-5
SK-MEL-5 = test system: SK-MEL-5
OVCAR-8 = test system: OVCAR-8
786-0 = test system: 786-0
HCC 2998 = test system: HCC 2998
SNB-19 = test system: SNB-19
UO-31 = test system: UO-31
KM12 = test system: KM12
SF-268 = test system: SF-268
ACHN = test system: ACHN
MDA-MB-231 = test system: MDA-MB-231
CAKI-1 = test system: CAKI-1
A549 = test system: A549
NCI-H522 = test system: NCI-H522
NCI-H460 = test system: NCI-H460
EKVX = test system: EKVX
TK-10 = test system: TK-10
HT-29 = test system: HT-29
CCRF-CEM = test system: CCRF-CEM

SMILES | GI50 (UACC-257) | GI50 (OVCAR-5) | GI50 (SK-MEL-5) | GI50 (OVCAR-8) | GI50 (786-0) | GI50 (HCC 2998) | GI50 (SNB-19) | GI50 (UO-31) | GI50 (KM12) | GI50 (SF-268) | GI50 (ACHN) | GI50 (MDA-MB-231) | GI50 (CAKI-1) | GI50 (A549) | GI50 (NCI-H522) | GI50 (NCI-H460) | GI50 (EKVX) | GI50 (TK-10) | GI50 (HT-29) | GI50 (CCRF-CEM)
Cc1cc(O)c(C(C)C)cc1NC(=O)Nc1cccc2ccccc12 | 17.5 µM (inactive) | 17.8 µM (inactive) | 12.5 µM (inactive) | 30.8 µM (inactive) | 15.3 µM (inactive) | 18.8 µM (inactive) | 11.8 µM (inactive) | 17.1 µM (inactive) | 15.7 µM (inactive) | 17.3 µM (inactive) | 14.6 µM (inactive) | 17.7 µM (inactive) | 16.2 µM (inactive) | 17.5 µM (inactive) | 15.1 µM (inactive) | 16.5 µM (inactive) | 14.7 µM (inactive) | 18.2 µM (inactive) | 17.5 µM (inactive) | –
Cc1c(N2CCCC2)cc2c(c1NC(=O)c1ccccc1Cl)C(C)(C)CC2(C)C | 11.7 µM (inactive) | 18 µM (inactive) | 16.8 µM (inactive) | 16 µM (inactive) | 14.1 µM (inactive) | 13.1 µM (inactive) | 15.2 µM (inactive) | 13.2 µM (inactive) | 15.3 µM (inactive) | 15.4 µM (inactive) | 15 µM (inactive) | 15.4 µM (inactive) | 13.3 µM (inactive) | 12.9 µM (inactive) | 13.1 µM (inactive) | 12.3 µM (inactive) | 14.5 µM (inactive) | 11.1 µM (inactive) | 14.3 µM (inactive) | –
C=C1CC2(CC(c3ccccc3Cl)OC(c3ccccc3Cl)C2)OC1=O (stereo not given) | 2.08 µM (inactive) | 8.73 µM (inactive) | 4.3 µM (inactive) | 2.11 µM (inactive) | 2 µM (inactive) | 3.52 µM (inactive) | 15.2 µM (inactive) | 5.89 µM (inactive) | 2.33 µM (inactive) | 2.27 µM (inactive) | 4.51 µM (inactive) | 1.85 µM (inactive) | 2 µM (inactive) | 7.74 µM (inactive) | 1.72 µM (inactive) | 5.08 µM (inactive) | 8.34 µM (inactive) | 4.33 µM (inactive) | 2.55 µM (inactive) | 1.96 µM (inactive)
CC1OC(OC2C(OC(=O)[C@]34CCC(C)(C)C[C@H]3C3=CC[C@@H]5[C@@]6(C)CC[C@H](OC7OC(C(=O)O)C(O)C(O)C7O)C(C)(C)[C@@H]6CC[C@@]5(C)[C@]3(C)C[C@H]4O)OCC(O)C2O)C(O)C(OC2OCC(O)(CO)C2O)C1OC1OCC(O)C(O)C1O (stereo not given in full) | 11.1 µM (inactive) | 10.8 µM (inactive) | 14.8 µM (inactive) | 17.1 µM (inactive) | 12.1 µM (inactive) | 1.81 µM (inactive) | 11 µM (inactive) | 2.92 µM (inactive) | 4.36 µM (inactive) | 17.9 µM (inactive) | 5.15 µM (inactive) | 3.43 µM (inactive) | 6.62 µM (inactive) | 3.9 µM (inactive) | 4.08 µM (inactive) | 18.2 µM (inactive) | 4.3 µM (inactive) | – | 3.53 µM (inactive) | 17 µM (inactive)
COc1cc2c(cc1OC)C(=O)N(c1ccc(OCCN3CCCC3)cc1)C2=O | > 100 µM (inactive) | > 100 µM (inactive) | > 100 µM (inactive) | > 100 µM (inactive) | > 100 µM (inactive) | > 100 µM (inactive) | > 100 µM (inactive) | – | > 100 µM (inactive) | > 100 µM (inactive) | > 100 µM (inactive) | > 100 µM (inactive) | > 100 µM (inactive) | > 100 µM (inactive) | > 100 µM (inactive) | > 100 µM (inactive) | > 100 µM (inactive) | > 100 µM (inactive) | > 100 µM (inactive) | > 100 µM (inactive)
Nc1nc(N)c2c(-c3ccccc3)ccnc2n1 | > 100 µM (inactive) | > 100 µM (inactive) | > 100 µM (inactive) | – | 67.1 µM (inactive) | > 100 µM (inactive) | > 100 µM (inactive) | > 100 µM (inactive) | – | > 100 µM (inactive) | > 100 µM (inactive) | > 100 µM (inactive) | > 100 µM (inactive) | – | > 100 µM (inactive) | > 100 µM (inactive) | 18.5 µM (inactive) | > 100 µM (inactive) | > 100 µM (inactive) | > 100 µM (inactive)
NNC(=S)N1CCN(C(=S)NN)CC1 | > 100 µM (inactive) | > 100 µM (inactive) | > 100 µM (inactive) | – | > 100 µM (inactive) | > 100 µM (inactive) | > 100 µM (inactive) | > 100 µM (inactive) | > 100 µM (inactive) | > 100 µM (inactive) | > 100 µM (inactive) | > 100 µM (inactive) | > 100 µM (inactive) | > 100 µM (inactive) | > 100 µM (inactive) | > 100 µM (inactive) | > 100 µM (inactive) | – | > 100 µM (inactive) | > 100 µM (inactive)
O=C(OCc1ccccc1CN1CCOCC1)c1cccc(Br)c1 | 24.6 µM (inactive) | 36.3 µM (inactive) | 17.7 µM (inactive) | 44.5 µM (inactive) | 74.8 µM (inactive) | 28.3 µM (inactive) | 93.1 µM (inactive) | 62.2 µM (inactive) | – | 62.8 µM (inactive) | 63.1 µM (inactive) | 33.7 µM (inactive) | 40.2 µM (inactive) | 28.7 µM (inactive) | 20.9 µM (inactive) | 83.8 µM (inactive) | 34.5 µM (inactive) | – | 16 µM (inactive) | –
Nc1ccccc1N/C(=C\C(=O)C(Cl)(Cl)Cl)c1ccccc1 | 23.9 µM (inactive) | 15.7 µM (inactive) | 15 µM (inactive) | 30.5 µM (inactive) | 20.4 µM (inactive) | 17.3 µM (inactive) | 36.9 µM (inactive) | 17.2 µM (inactive) | 33.6 µM (inactive) | 24.3 µM (inactive) | 24.1 µM (inactive) | 15.2 µM (inactive) | 34.5 µM (inactive) | 28.8 µM (inactive) | 15.3 µM (inactive) | 25.9 µM (inactive) | 15.2 µM (inactive) | 65 µM (inactive) | 27.4 µM (inactive) | 30.2 µM (inactive)
c1ccc2c(c1)nc1n2C2CCC(C2)N1 (stereo not given) | > 10 µM (inactive) | > 10 µM (inactive) | > 10 µM (inactive) | > 10 µM (inactive) | > 10 µM (inactive) | > 10 µM (inactive) | > 10 µM (inactive) | > 10 µM (inactive) | – | > 10 µM (inactive) | – | > 10 µM (inactive) | > 10 µM (inactive) | > 10 µM (inactive) | > 10 µM (inactive) | > 10 µM (inactive) | > 10 µM (inactive) | > 10 µM (inactive) | > 10 µM (inactive) | > 10 µM (inactive)
CCCCCCCCCCCCCCCCCC(=O)Nc1ccn(C2CCC(COP(=O)(O)O)O2)c(=O)n1 (stereo not given) | > 100 µM (inactive) | > 100 µM (inactive) | > 100 µM (inactive) | > 100 µM (inactive) | > 100 µM (inactive) | > 100 µM (inactive) | > 100 µM (inactive) | > 100 µM (inactive) | > 100 µM (inactive) | > 100 µM (inactive) | > 100 µM (inactive) | > 100 µM (inactive) | > 100 µM (inactive) | > 100 µM (inactive) | > 100 µM (inactive) | – | > 100 µM (inactive) | > 100 µM (inactive) | > 100 µM (inactive) | > 100 µM (inactive)
N=c1oc2ccc3ccccc3c2cc1-c1nc(O)c2ccccc2n1 | 42.5 µM (inactive) | 96.6 µM (inactive) | 44.5 µM (inactive) | 26.7 µM (inactive) | 24.3 µM (inactive) | 29.6 µM (inactive) | 27.6 µM (inactive) | 3.23 µM (inactive) | 11 µM (inactive) | 30.8 µM (inactive) | 11.1 µM (inactive) | 24.1 µM (inactive) | 43.5 µM (inactive) | 20.7 µM (inactive) | 3.27 µM (inactive) | 32.8 µM (inactive) | 19.5 µM (inactive) | 21 µM (inactive) | 13 µM (inactive) | –
CCn1c2ccccc2c2cc(Nc3cc(C)[nH]c(=O)n3)ccc21 | > 100 µM (inactive) | > 100 µM (inactive) | – | > 100 µM (inactive) | > 100 µM (inactive) | > 100 µM (inactive) | > 100 µM (inactive) | > 100 µM (inactive) | 5.7 µM (inactive) | > 100 µM (inactive) | > 100 µM (inactive) | > 100 µM (inactive) | > 100 µM (inactive) | > 100 µM (inactive) | 0.916 µM (active) | > 100 µM (inactive) | > 100 µM (inactive) | > 100 µM (inactive) | > 100 µM (inactive) | –
C[C@@H]1CC[C@]2(C(=O)O)CC[C@]3(C)C(=CC[C@@H]4[C@@]5(C)CC[C@H](O)C(C)(C)[C@@H]5CC[C@]43C)[C@@H]2[C@]1(C)O [POMOLIC ACID] | 5.42 µM (inactive) | 17.7 µM (inactive) | – | 20.2 µM (inactive) | 5.38 µM (inactive) | 15 µM (inactive) | 15.7 µM (inactive) | 11.3 µM (inactive) | 12.4 µM (inactive) | 17.1 µM (inactive) | 16.5 µM (inactive) | 8.79 µM (inactive) | 14 µM (inactive) | 17.2 µM (inactive) | 13.9 µM (inactive) | 5.41 µM (inactive) | 18.3 µM (inactive) | 14.5 µM (inactive) | – | 10.3 µM (inactive)
